Assay results published in BindingDB's records for doi:10.1021/acs.jmedchem.9b00061 (Ajou University, 2019).
Where a SMILES comes first, the peptide text is derived from it. Bridges are numbered along the chain shown (N, C = ends).

Biological target: Toll-like receptor 4 (Homo sapiens, UniProt O00206)
Assay: Binding affinity to recombinant human TLR4 assessed as dissociation constant up to 200 uM by surface plasmon resonance analysis

Chain of Toll-like receptor 4 (O00206 whole entry): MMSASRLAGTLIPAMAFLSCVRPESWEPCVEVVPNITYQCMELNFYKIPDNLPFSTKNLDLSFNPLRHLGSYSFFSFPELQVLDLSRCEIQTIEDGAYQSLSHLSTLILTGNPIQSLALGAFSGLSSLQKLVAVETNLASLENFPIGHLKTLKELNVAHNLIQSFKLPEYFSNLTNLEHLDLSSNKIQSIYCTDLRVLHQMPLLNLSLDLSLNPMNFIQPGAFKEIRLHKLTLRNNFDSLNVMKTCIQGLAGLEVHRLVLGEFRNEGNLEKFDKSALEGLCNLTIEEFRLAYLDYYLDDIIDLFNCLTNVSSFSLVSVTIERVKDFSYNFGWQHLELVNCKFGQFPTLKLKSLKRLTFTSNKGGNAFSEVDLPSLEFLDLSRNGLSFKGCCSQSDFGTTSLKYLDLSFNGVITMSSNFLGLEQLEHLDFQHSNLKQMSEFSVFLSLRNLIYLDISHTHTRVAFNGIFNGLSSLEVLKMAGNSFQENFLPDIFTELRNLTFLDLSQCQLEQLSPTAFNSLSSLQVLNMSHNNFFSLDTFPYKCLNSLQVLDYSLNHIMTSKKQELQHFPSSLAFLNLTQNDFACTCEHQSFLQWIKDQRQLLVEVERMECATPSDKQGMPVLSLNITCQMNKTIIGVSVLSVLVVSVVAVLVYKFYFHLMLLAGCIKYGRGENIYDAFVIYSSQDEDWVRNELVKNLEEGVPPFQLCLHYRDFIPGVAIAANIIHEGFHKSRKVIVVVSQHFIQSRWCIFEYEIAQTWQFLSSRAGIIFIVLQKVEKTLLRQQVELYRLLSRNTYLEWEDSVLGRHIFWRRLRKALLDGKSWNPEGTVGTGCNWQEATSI

Row | Compound | Kd
1 | CC[C@H](C)[C@@H]1NC(=O)[C@H](Cc2c[nH]c3ccccc23)NC(=O)[C@H](Cc2c[nH]c3ccccc23)NC(=O)[C@@H](NC(=O)[C@H](CO)NC(=O)[C@H](Cc2ccccc2)NC(=O)[C@@H](NC(=O)CNC(=O)[C@@H](N)CC(C)C)C(C)C)CC(=O)NCCCC[C@@H](C(=O)N[C@@H](CC(C)C)C(=O)N[C@H](C(=O)O)C(C)C)NC1=O (H-LGVFSDWWIKLV-OH; lactam 6-10) | 1.4 nM
2 | H-LGVFSSWWIKLV-OH | 1.1 nM
